Laboratory results: PubChem BioAssay AID270 (DTP/NCI, 2004)
Several values for one entry are separate records, joined by “and”; a condition that tells them apart may be missing. Equal entries are not always repeated. Records with an inconclusive call do not appear.

Test system: BDF1 mice, s.c. Lewis lung carcinoma, T/C %
Experiment: NCI In Vivo Anticancer Drug Screen. Data for tumor model Lewis Lung Carcinoma (subcutaneous) in B6D2F1 (BDF1) mice
Method in brief: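 The value reflects a ratio in which the treated cohort's survival time or tumour size is compared against mice receiving only vehicle.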

[1] = endpoint: mean tumor weight, dose: 0.25 mg/kg/injection, schedule: Q01DX011 (ip), vehicle: water, higher = larger tumour
[2] = endpoint: mean tumor weight, dose: 100.0 mg/kg/injection, schedule: Q01DX011 (ip), vehicle: carboxymethylcellulose (CMC), higher = larger tumour
[3] = endpoint: mean tumor weight, dose: 200.0 mg/kg/injection, schedule: Q01DX011 (ip), vehicle: carboxymethylcellulose (CMC), higher = larger tumour
[4] = endpoint: mean tumor weight, dose: 50.0 mg/kg/injection, schedule: Q01DX011 (ip), vehicle: carboxymethylcellulose (CMC), higher = larger tumour

COC1=C(N)C(=O)c2nc(-c3nc(C(=O)O)c(C)c(-c4ccc(OC)c(OC)c4O)c3N)ccc2C1=O
T/C (endpoint: mean tumor weight, dose: 0.06 mg/kg/injection, schedule: Q01DX011 (ip), vehicle: water, higher = larger tumour): 68 % of control | T/C (endpoint: mean tumor weight, dose: 0.12 mg/kg/injection, schedule: Q01DX011 (ip), vehicle: water, higher = larger tumour): 56 % of control | T/C [1]: 42 % of control | T/C (endpoint: median survival time, dose: 62.5 micrograms/kg/injection, schedule: Q01DX009 (ip), vehicle: saline, higher = longer survival): 98 % of control | T/C (endpoint: median survival time, dose: 125.0 micrograms/kg/injection, schedule: Q01DX009 (ip), vehicle: saline, higher = longer survival): 112 % of control | T/C (endpoint: median survival time, dose: 250.0 micrograms/kg/injection, schedule: Q01DX009 (ip), vehicle: saline, higher = longer survival): 98 % of control

Oc1cc2c3c(c1)c1cc4c(cc1c[n+]3CC2)OCO4
T/C (endpoint: median survival time, dose: 3.13 mg/kg/injection, schedule: Q01DX009 (ip), vehicle: water, higher = longer survival): 109 % of control | T/C (endpoint: median survival time, dose: 6.25 mg/kg/injection, schedule: Q01DX009 (ip), vehicle: water, higher = longer survival): 96 % of control | T/C (endpoint: median survival time, dose: 12.5 mg/kg/injection, schedule: Q01DX009 (ip), vehicle: water, higher = longer survival): 122 % of control | T/C (endpoint: median survival time, dose: 25.0 mg/kg/injection, schedule: Q01DX009 (ip), vehicle: water, higher = longer survival): 96 % of control

CC(=O)NC1=C(N2CC2)C(=O)C(NC(C)=O)=C(N2CC2)C1=O
T/C (endpoint: median survival time, dose: 0.12 mg/kg/injection, schedule: Q01DX009 (ip), vehicle: saline with Tween-80, higher = longer survival): 105 % of control and 111 % of control | T/C (endpoint: median survival time, dose: 0.25 mg/kg/injection, schedule: Q01DX005 (ip), vehicle: saline with Tween-80, higher = longer survival): 102 % of control and 119 % of control | T/C (endpoint: median survival time, dose: 0.25 mg/kg/injection, schedule: Q01DX009 (ip), vehicle: saline with Tween-80, higher = longer survival): 102 % of control and 112 % of control | T/C (endpoint: median survival time, dose: 0.5 mg/kg/injection, schedule: Q01DX005 (ip), vehicle: saline with Tween-80, higher = longer survival): 98 % of control and 109 % of control | T/C (endpoint: median survival time, dose: 0.5 mg/kg/injection, schedule: Q01DX009 (ip), vehicle: saline with Tween-80, higher = longer survival): 87 % of control and 105 % of control | T/C (endpoint: median survival time, dose: 1.0 mg/kg/injection, schedule: Q01DX005 (ip), vehicle: saline with Tween-80, higher = longer survival): 115 % of control | T/C (endpoint: median survival time, dose: 1.0 mg/kg/injection, schedule: Q01DX009 (ip), vehicle: saline with Tween-80, higher = longer survival): 123 % of control | T/C (endpoint: median survival time, dose: 2.0 mg/kg/injection, schedule: Q01DX005 (ip), vehicle: saline with Tween-80, higher = longer survival): 94 % of control

NCC(O)c1ccc(O)c(O)c1 (stereo not given)
T/C (endpoint: mean tumor weight, dose: 2.5 mg/kg/injection, schedule: Q01DX011 (ip), vehicle: saline, higher = larger tumour): 105 % of control | T/C (endpoint: mean tumor weight, dose: 5.0 mg/kg/injection, schedule: Q01DX011 (ip), vehicle: saline, higher = larger tumour): 161 % of control | T/C (endpoint: mean tumor weight, dose: 10.0 mg/kg/injection, schedule: Q01DX011 (ip), vehicle: saline, higher = larger tumour): 63 % of control

C[n+]1ccc(Nc2ccc(NC(=O)c3ccc(Nc4cc[n+](C)c5ccc(N)cc45)cc3)cc2)cc1
T/C (endpoint: median survival time, dose: 1.0 mg/kg/injection, schedule: Q01DX009 (ip), vehicle: Klucel (hydroxypropylcellulose) (HPC), higher = longer survival): 167 % of control | T/C (endpoint: median survival time, dose: 8.0 mg/kg/injection, schedule: Q01DX009 (ip), vehicle: Klucel (hydroxypropylcellulose) (HPC), higher = longer survival): 244 % of control

O=C1CN=C(c2ccc[nH]2)c2cc(Cl)ccc2N1
T/C (endpoint: mean tumor weight, dose: 40.0 mg/kg/injection, schedule: Q01DX011 (ip), vehicle: other, higher = larger tumour): 112 % of control | T/C (endpoint: mean tumor weight, dose: 120.0 mg/kg/injection, schedule: Q01DX011 (ip), vehicle: other, higher = larger tumour): 73 % of control and 90 % of control

C=C(C)[C@@H]1CC[C@]2(CO)CC[C@]3(C)[C@H](CC[C@@H]4[C@@]5(C)CC[C@H](O)C(C)(C)[C@@H]5CC[C@]43C)[C@@H]12
T/C [2]: 101 % of control | T/C [3]: 68 % of control

ClCCCN1CCCCC1CCl (stereo not given)
T/C (endpoint: median survival time, dose: 3.12 mg/kg/injection, schedule: Q04DX003 (ip), vehicle: saline, higher = longer survival): 96 % of control | T/C (endpoint: median survival time, dose: 6.25 mg/kg/injection, schedule: Q04DX003 (ip), vehicle: saline, higher = longer survival): 113 % of control | T/C (endpoint: median survival time, dose: 12.5 mg/kg/injection, schedule: Q04DX003 (ip), vehicle: saline, higher = longer survival): 104 % of control

C[C@H]1C[C@H]2[C@@H]3CC[C@](O)(C(=O)CO)[C@@]3(C)C[C@H](O)[C@]2(F)[C@@]2(C)C=CC(=O)C=C12
T/C (endpoint: mean tumor weight, dose: 15.0 mg/kg/injection, schedule: Q01DX011 (sc), vehicle: steriod suspending solution, higher = larger tumour): 44 % of control | T/C (endpoint: mean tumor weight, dose: 30.0 mg/kg/injection, schedule: Q01DX011 (sc), vehicle: steriod suspending solution, higher = larger tumour): 43 % of control | T/C (endpoint: mean tumor weight, dose: 90.0 mg/kg/injection, schedule: Q01DX011 (sc), vehicle: steriod suspending solution, higher = larger tumour): 12 % of control

c1ccc([As+](c2ccccc2)(c2ccccc2)c2ccccc2)cc1
T/C (endpoint: median survival time, dose: 1.87 mg/kg/injection, schedule: Q01DX009 (ip), vehicle: Klucel (hydroxypropylcellulose) (HPC), higher = longer survival): 97 % of control | T/C (endpoint: median survival time, dose: 3.75 mg/kg/injection, schedule: Q01DX009 (ip), vehicle: Klucel (hydroxypropylcellulose) (HPC), higher = longer survival): 95 % of control

Nc1ccc2ccccc2c1N=Nc1ccccc1
T/C (endpoint: mean tumor weight, dose: 500.0 mg/kg/injection, schedule: Q01DX011 (ip), vehicle: other, higher = larger tumour): 105 % of control | T/C (endpoint: median survival time, dose: 50.0 mg/kg/injection, schedule: Q01DX009 (ip), vehicle: Klucel (hydroxypropylcellulose) (HPC), higher = longer survival): 104 % of control | T/C (endpoint: median survival time, dose: 100.0 mg/kg/injection, schedule: Q01DX009 (ip), vehicle: Klucel (hydroxypropylcellulose) (HPC), higher = longer survival): 104 % of control | T/C (endpoint: median survival time, dose: 200.0 mg/kg/injection, schedule: Q01DX009 (ip), vehicle: Klucel (hydroxypropylcellulose) (HPC), higher = longer survival): 98 % of control | T/C (endpoint: median survival time, dose: 400.0 mg/kg/injection, schedule: Q01DX009 (ip), vehicle: Klucel (hydroxypropylcellulose) (HPC), higher = longer survival): 95 % of control

C=C(C)[C@H]1Cc2c(ccc3c2O[C@@H]2COc4cc(OC)c(OC)cc4[C@@H]2C3=O)O1
T/C [1]: 76 % of control | T/C (endpoint: mean tumor weight, dose: 0.5 mg/kg/injection, schedule: Q01DX011 (ip), vehicle: water, higher = larger tumour): 65 % of control | T/C (endpoint: mean tumor weight, dose: 1.0 mg/kg/injection, schedule: Q01DX011 (ip), vehicle: water, higher = larger tumour): 60 % of control

COC1OC(CNC(=O)N(C)N=O)C(O)C(O)C1O (stereo not given)
T/C (endpoint: median survival time, dose: 50.0 mg/kg/injection, schedule: Q01DX009 (ip), vehicle: saline, higher = longer survival): 102 % of control | T/C (endpoint: median survival time, dose: 100.0 mg/kg/injection, schedule: Q01DX009 (ip), vehicle: saline, higher = longer survival): 112 % of control | T/C (endpoint: median survival time, dose: 200.0 mg/kg/injection, schedule: Q01DX009 (ip), vehicle: saline, higher = longer survival): 97 % of control

Nc1nc(SCc2ccccc2Cl)c2ncn(C3OC(CO)C(O)C3O)c2n1 (stereo not given)
T/C (endpoint: mean tumor weight, dose: 6.3 mg/kg/injection, schedule: Q01DX011 (ip), vehicle: other, higher = larger tumour): 56 % of control | T/C (endpoint: mean tumor weight, dose: 12.5 mg/kg/injection, schedule: Q01DX011 (ip), vehicle: other, higher = larger tumour): 55 % of control | T/C (endpoint: mean tumor weight, dose: 25.0 mg/kg/injection, schedule: Q01DX011 (ip), vehicle: other, higher = larger tumour): 49 % of control | T/C (endpoint: mean tumor weight, dose: 50.0 mg/kg/injection, schedule: Q01DX011 (ip), vehicle: other, higher = larger tumour): 28 % of control

O=C(O)/C=C\C(=O)Nc1nccs1
T/C [4]: 87 % of control | T/C [2]: 85 % of control

CC1=C(/C=C/C(C)=C/C=C/C(C)=C/CO)C(C)(C)CCC1
T/C (endpoint: median survival time, dose: 4.0 mg/kg/injection, schedule: Q01DX005 (ip), vehicle: saline with Tween-80, higher = longer survival): 108 % of control | T/C (endpoint: median survival time, dose: 12.5 mg/kg/injection, schedule: Q01DX005 (ip), vehicle: saline with Tween-80, higher = longer survival): 109 % of control | T/C (endpoint: median survival time, dose: 16.0 mg/kg/injection, schedule: Q01DX005 (ip), vehicle: saline with Tween-80, higher = longer survival): 111 % of control | T/C (endpoint: median survival time, dose: 32.0 mg/kg/injection, schedule: Q01DX005 (ip), vehicle: saline with Tween-80, higher = longer survival): 115 % of control | T/C (endpoint: median survival time, dose: 64.0 mg/kg/injection, schedule: Q01DX005 (ip), vehicle: saline with Tween-80, higher = longer survival): 191 % of control | T/C (endpoint: median survival time, dose: 128.0 mg/kg/injection, schedule: Q01DX005 (ip), vehicle: saline with Tween-80, higher = longer survival): 92 % of control

Nc1nc(SCc2ccccc2)c2ncn(C3CCCC3)c2n1
T/C (endpoint: mean tumor weight, dose: 75.0 mg/kg/injection, schedule: Q01DX011 (ip), vehicle: other, higher = larger tumour): 115 % of control | T/C (endpoint: mean tumor weight, dose: 150.0 mg/kg/injection, schedule: Q01DX011 (ip), vehicle: other, higher = larger tumour): 81 % of control | T/C (endpoint: mean tumor weight, dose: 300.0 mg/kg/injection, schedule: Q01DX011 (ip), vehicle: other, higher = larger tumour): 54 % of control | T/C (endpoint: mean tumor weight, dose: 600.0 mg/kg/injection, schedule: Q01DX011 (ip), vehicle: other, higher = larger tumour): 47 % of control and 65 % of control | T/C (endpoint: mean tumor weight, dose: 750.0 mg/kg/injection, schedule: Q01DX011 (ip), vehicle: other, higher = larger tumour): 52 % of control

CN(CCC(=O)c1ccccc1)CCC(=O)c1ccccc1
T/C (endpoint: mean tumor weight, dose: 55.0 mg/kg/injection, schedule: Q01DX011 (ip), vehicle: other, higher = larger tumour): 91 % of control | T/C (endpoint: mean tumor weight, dose: 83.0 mg/kg/injection, schedule: Q01DX011 (ip), vehicle: other, higher = larger tumour): 122 % of control

CN1C2CCC1CC(OC(=O)C(CO)c1ccccc1)C2 (stereo not given)
T/C (endpoint: mean tumor weight, dose: 12.5 mg/kg/injection, schedule: Q01DX011 (ip), vehicle: saline, higher = larger tumour): 92 % of control | T/C (endpoint: mean tumor weight, dose: 50.0 mg/kg/injection, schedule: Q01DX011 (ip), vehicle: saline, higher = larger tumour): 72 % of control | T/C (endpoint: mean tumor weight, dose: 100.0 mg/kg/injection, schedule: Q01DX011 (ip), vehicle: saline, higher = larger tumour): 154 % of control

O=C1C2CCCCC2C(=O)N1c1nccs1 (stereo not given)
T/C [4]: 58 % of control | T/C [2]: 71 % of control | T/C [3]: 84 % of control

Nc1ncn(C2CC(O)C(CO)O2)c(=O)n1 (stereo not given)
T/C (endpoint: median survival time, dose: 0.05 mg/kg/injection, schedule: Q01DX009 (ip), vehicle: saline, higher = longer survival): 102 % of control | T/C (endpoint: median survival time, dose: 0.1 mg/kg/injection, schedule: Q01DX009 (ip), vehicle: saline, higher = longer survival): 102 % of control and 109 % of control | T/C (endpoint: median survival time, dose: 0.2 mg/kg/injection, schedule: Q01DX009 (ip), vehicle: saline, higher = longer survival): 109 % of control and 112 % of control | T/C (endpoint: median survival time, dose: 0.8 mg/kg/injection, schedule: Q01DX009 (ip), vehicle: Klucel (hydroxypropylcellulose) (HPC), higher = longer survival): 167 % of control
